“Also recorded” adds a separate entry of the source.
How the values were obtained:
PA1 human ovarian cells = test: DNA fragmentation, PA1 human ovarian cells; format: cell-based
Text: (§1) This DNA fragmentation was not observed in normal 3T3 cells.

glioblastoma multiforma = test: Clinical use in patients with advanced recurrent glioblastoma multiforma; format: in vivo, human
Method: Four patients, which were diagnosed with advanced recurrent glioblastoma multiforma, were treated with taurolidine. The prognosis for this group of patients was determined to be approximately 8 weeks of survival.

[1] = tested on: Bcl2-over expressing HL-60 cells; test: Apoptosis induction in Bcl2-over expressing HL-60 cells; format: cell-based, human
Text: Human leukemia HL-60 cells, which were genetically-engineered to resist apoptotic induction, were induced to apoptosis independently (downstream) of the bcl-2/bax (anti-death gene) point in the signal transduction cascade.

SKOV-3 = test: Flow cytometry cell cycle distribution / DNA debris, SKOV-3; format: cell-based, human; details: 48 h exposure
Method: (§2) Three×10^5 cells were seeded in plastic tissue culture flasks. […] Control cultures received an appropriate volume of Kollidine-17P. […] The percentage of DNA debris in the sub-G0/G1 region was assessed using cytofluorometric techniques. Each bar represents the mean (±SE) of three determinations. **p≦0.01, ***p≦0.001, ****p≦0.0001
For flow cytometry studies, 1×10^6 PA-1, SKOV-3, or NIH-3T3 cells were incubated for 24 h in appropriate media containing serum. […] Control cultures for each cell line were incubated in media containing 40 μl of 5% Kollidon 17PF alone. Forty-eight hours later, all cells were harvested by trypsinization and prepared for cytofluorometric analysis by standard methods. For example, harvested cells were resuspended in ice cold phosphate-buffered saline at a final cell density of 2×10^6 cells/ml. The cells then were stained for 30 min at room temperature in the dark with a solution of 0.05 mg/ml propidium iodide, 0.6% Igepal, and 1% sodium citrate. Flow cytometry was performed by FACScan (Becton Dickinson, Plymouth, England) using the ModFit LT program (Becton Dickinson). […]
Three×10^5 cells were seeded in plastic tissue culture flasks. […] After an additional 48 h, cells were harvested, stained with propidium iodide, and cell cycle distribution assessed using cytofluorometric techniques. […]

[2] = tested on: human ovarian tumor cells; test: Growth of established human ovarian tumor cell colonies; format: cell-based; details: 24-hour exposure to 50 μM; discrete colonies
Method: Parallel studies were carried out to assess whether disruption of cell adhesion played a role in the cytotoxic activity.

3T3 cells = test: DNA fragmentation, normal 3T3 cells; format: cell-based
Text: as §1

[3] = Clinical tolerability in ovarian tumor and glioblastoma patients; format: in vivo, human; details: i.p. lavage after surgery for recurrent ovarian tumors; systemic in glioblastoma
Method: Taurolidine was administered by i.p. lavage immediately following surgery for removal of recurrent ovarian tumors. For patients with glioblastoma, Taurolidine was administered systemically.
Taurolidine was administered by i.p. lavage immediately following surgery for removal of recurrent ovarian tumors. For patients with glioblastoma, taurolidine was administered systemically.

[4] = tested on: normal murine bone marrow cultures; test: Cytotoxic and apoptotic activity in normal murine bone marrow cultures; format: cell-based
Text: This observation was confirmed using normal (non-tumor) primary cells derived from animals, which are known to be free of tumors.

[5] = Taurolidine-induced toxicity in athymic (nude) female mice; format: in vivo; details: for mortality (%): i.p., three consecutive days, nude female mice
Method: Control animals received 1 ml injections of 5% Kollidon 17PF alone. Animals were examined daily and body weight recorded twice weekly. A reduction in body weight of greater than 10% was considered significant. The maximally tolerated dose (MTD) was considered to be the dose which produced ˜10% mortality.
During the injection regimen, and daily thereafter for 30 d, mice were weighed and examined. Experiments were repeated a minimum of three times and mortality and weight loss data pooled.

human tumor cell lines = test: Tumor cell killing and apoptosis in culture; format: cell-based
PARP = test: Western-blot analysis of PARP cleavage, NIH-3T3 cells; format: cell-based, murine; details: 24 h exposure to 50 or 100 μM
Method: Two×10^6 cells were seeded in 150 cm^2 tissue culture flasks. […] After an additional twenty-four hours, cells were harvested, cell number determined, and aliquots derived from equal cell numbers generated from each exposure condition. Total proteins from these whole cell lysates were separated by SDS-PAGE and transferred to nitrocellulose filters. Filters were then immunoblotted to detect intact PARP protein and cleavage fragments by using the clone C-2-10 mouse monoclonal anti-PARP antibody (Zymed Laboratories, San Francisco, Calif.). The resulting protein-antibody complexes were visualized by chemiluminescence techniques.
Western-blot analysis was used to assess of PARP cleavage. Two×10^6 cells were seeded into separate 75 cm^2 tissue culture flasks containing 20 ml of tissue culture media plus serum. […] Twenty-four hours after the addition of Taurolidine, cells were harvested, cell number determined, and aliquots containing an equal cell number were generated from each exposure condition. Total proteins from whole cell lysates generated from these aliquots were separated by SDS-PAGE and electrotransferred to nitrocellulose filters. Filters were then processed to detect intact PARP protein and cleavage fragments by using the clone C-2-10 mouse monoclonal anti-PARP antibody (Zymed Laboratories, San Francisco, Calif.). […]

[6] = tested on: HL-60 human promyelocytic cell line; test: Apoptosis induction in HL-60 cells; format: cell-based; details: non-adherent cancer cell models
NIH-3T3 = test: Flow cytometry cell cycle distribution / DNA debris, NIH-3T3; format: cell-based, murine
Method: as §2
For flow cytometry studies, 1×10^6 PA-1, SKOV-3, or NIH-3T3 cells were incubated for 24 h in appropriate media containing serum. […] Control cultures for each cell line were incubated in media containing 40 μl of 5% Kollidon 17PF alone. […] For example, harvested cells were resuspended in ice cold phosphate-buffered saline at a final cell density of 2×10^6 cells/ml. The cells then were stained for 30 min at room temperature in the dark with a solution of 0.05 mg/ml propidium iodide, 0.6% Igepal, and 1% sodium citrate. Flow cytometry was performed by FACScan (Becton Dickinson, Plymouth, England) using the ModFit LT program (Becton Dickinson). Statistical analysis was performed with the Kruskal Wallis non-parametric ANOVA test followed by Dunn's multiple comparisons test using Instat.
Three×10^5 cells were seeded in plastic tissue culture flasks. […] Control cultures received an appropriate volume of Kollidine-17P. After an additional 48 h, cells were harvested, stained with propidium iodide, and cell cycle distribution assessed using cytofluorometric techniques. Each value represents the percentage of cells in the noted cell cycle phases and is the mean±SEM of three determinations.

O=S1(=O)CCN(CN2CCS(=O)(=O)NC2)CN1 [Taurolidine, Bis-(1,1-dioxoperhydro-1,2,4-thiadiazinyl-4)methane]
DNA fragmentation (PA1 human ovarian cells; PA1, 24-hour exposure): induced a high degree of DNA fragmentation
DNA fragmentation by agarose-gel electrophoresis (PA1 human ovarian cells; ovarian tumor cells, 50 μM): overt DNA fragmentation
patients in whom the tumor mass decreased or stayed the same (glioblastoma multiforma; 20 g infused intravenously over 6 hours twice a week, at least one 5 week regimen, four patients): 3 out of the 4
survival (glioblastoma multiforma; at 14 weeks after the initiation of therapy, prognosis approximately 8 weeks): each of the patients remains alive
induction of apoptosis [1]: capable of inducing apoptosis, but with a delayed onset
effect on cell cycle distribution (SKOV-3): reduced the percentage of cells in the G0/G1-phase and increased the percentage of cells in both S and G2/M; also recorded: concentration-dependent decrease in the percentage of cells in G0/G1 but increased the percentage of cells in both the S-phase and G2/M
DNA debris in the sub-G0/G1 region (SKOV-3; 25-100 μM): significantly increased DNA debris; also recorded: resulted in the appearance of DNA debris
cytotoxic effect against the growth of established tumor cells [2]: significant cytotoxic effect
DNA fragmentation (3T3 cells; 3T3, 24-hour exposure): not observed
DNA fragmentation by agarose-gel electrophoresis (3T3 cells; 3T3 cells, identical regimen (50 μM)): not apparent
tolerability in patients [3]: well tolerated
concentrations required to inhibit cell proliferation ([4]; normal murine bone marrow): concentrations in the mM range
induction of apoptosis ([4]; normal murine bone marrow cultures): did not produce cellular changes consistent with the induction of apoptosis
mortality (%) ([5]; 10 mg/mouse/inj): 6%
mortality (%) ([5]; 20 mg/mouse/inj): 13%
mortality (%) ([5]; 25 mg/mouse/inj): 47%
mortality (%) ([5]; 30 mg/mouse/inj): 100%
tolerability ([5]; daily doses below 15 mg/mouse (˜650 mg/kg), 3 d i.p. bolus regimen): well-tolerated
incubation time after which apoptosis of tumor cells is induced (human tumor cell lines; in culture): as little as one hour
number of different human tumor cell lines killed (human tumor cell lines; ovarian, breast, brain, colon, prostate, urinary bladder, lung, melanomas, mesotheliomas, laryngeal carcinomas, leukemias, lymphomas): at least 28
PARP cleavage (PARP): little evidence of this proteolytic event
PARP cleavage (PARP; listed as taurolidine): PARP cleavage was not evident
apoptotic signalling events after exposure [6]: activation of caspases 3, 8 and 9
cell cycle kinetics and distribution (NIH-3T3; 3T3, 24-hour exposure): significantly reduced the percentage of cells in both the S- and G2/M-phases
effect on cell cycle distribution (NIH-3T3; NIH-3T3, 48 h exposure): increased the percentage of cells in S-phase, decreased the percentage of cells in G0/G1; also recorded: decreased the percentage of cells in G0/G1 and increased the percentage of cells in S
DNA debris in the sub-G0/G1 region (NIH-3T3; NIH-3T3, 48 h exposure, 25-100 μM): did not increase DNA debris; also recorded: did not significantly affect the appearance of DNA debris

— US6964959B2, “Use of a methylol-containing compound to treat tumors” (Carter Wallace, Inc., priority 1999, dated 2005)
